US11882836B2, “1-amino-1-cyclopropanecarboxylic acid mixtures and uses thereof” (Valent BioSciences LLC, priority 2020, dated 2024)

Legend:
Format in all cases: in vivo
[1] = test system: Prunus (stone fruit) plants; test: Bud break and shoot development of Prunus plants, ACC and CAN15 mixtures (Example 4); settings: for Mean FW: harvest
Description: (§1) To determine if the mixtures provided unexpected results, the observed combined efficacy (“OCE”) was divided by the expected combined efficacy (“ECE”) wherein the expected ECE is calculated by the Abbott method: ECE=A+B−(AB/100),
If the ratio between the OCE of the mixture and the ECE of the mixture is greater than 1, then greater than expected interactions are present in the mixture.
(§2) To assess the ability of mixtures of the invention to promote and synchronize bud break, these mixtures were applied to Prunus (stone fruit) plants in the greenhouse and examined for bud break (initiation of growth) and subsequent shoot development. ACC, Dormex (50% HC), and 15-0-0 fertilizers (CAN15), and mixtures thereof were each applied individually or sequentially (co-applied) to the shoots of Prunus plants.

[2] = test system: Prunus (stone fruit) plants; test: Bud break and shoot development of Prunus (stone fruit) plants in the greenhouse (Example 2); settings: for FW (grams): harvest, 28 days
Description: as §1
(§3) wherein ECE is the expected combined efficacy and in which A and B are the speed of bud break relative to control, the number of buds broken per plant relative to control, shoot length relative to control or shoot weight relative to control given by the single active ingredients. If the ratio between the OCE of the mixture and the ECE of the mixture is greater than 1, then greater than expected interactions are present in the mixture. (Gisi, Synergistic Interaction of Fungicides in Mixtures, The American Phytopathological Society, 86:11, 1273-1279, 1996).
as §2, with “Dormex®” for “Dormex”, “HC), 15-0-0 (Erger®)” for “HC),”, “17-0-0” for “15-0-0”, “(CAN17),” for “(CAN15),”, “plants. Plants were evaluated for bud break at 28 days after treatment.” for “plants.”

[3] = test system: Prunus (stone fruit) plants; test: Bud break and shoot development of Prunus plants, ACC and CAN17 mixtures (Example 3); settings: for Mean FW: harvest
Description: as §1, §3
as §2, with “Dormex®” for “Dormex”, “17-0-0” for “15-0-0”, “(CAN17),” for “(CAN15),”, “plants. Plants were evaluated for bud break from 4-21 days after treatment.” for “plants.”

Malus (apple) rootstocks = test: Bud break and shoot development of Malus (apple) rootstocks after shoot application (Example 1); settings: for Average Number of Broken Buds Per Malus Plant at Harvest / Average Number of Broken Nodes Per Centimeter of Shoot at Harvest / Fresh Weight at Harvest / Fresh Weight per Bud at Harvest: 28 days; for Fresh Weight at Harvest / Fresh Weight per Bud at Harvest: Malus
Excerpt: To assess the ability of mixtures of the invention to promote and synchronize bud break, these mixtures were applied to field-grown Malus (apple) rootstocks and examined for bud break (initiation of growth) and subsequent shoot development. ACC, Dormex® (50% HC), 15-0-0 (Erger®) and 17-0-0 fertilizers (CAN17), and mixtures thereof were each applied individually or sequentially (co-applied) to the shoots of potted Malus rootstocks that were pruned to a height of 25 centimeters. Plants were evaluated for bud break at 28 days after treatment.
as §1, §3

Which “0-100% BB” value ([1]; HC 1% (v/v)) does the source give for `N#CN` [HC, hydrogen cyanamide, reference compound] here?
Its value is 6 days.

What about the “50% BB” value ([1]; HC 1% (v/v)) of the same compound?
The value was 9 days.

And the “Mean FW” value ([1]; HC 1% (v/v))?
Its value is 3.15 g.

What about the “50% BB” value ([2]; HC 1% (v/v)) of the same compound?
Its value is 7 days.

And the “FW (grams)” value ([2]; HC 1% (v/v))?
Its value is 4.76 grams.

And the “0-100% BB” value ([3]; HC 1% (v/v))?
The value was 6 days.

What about the “50% BB” value ([3]; HC 1% (v/v)) of the same compound?
The value was 9 days.

And the “Mean FW” value ([3]; HC 1% (v/v))?
The value was 1.64 g.

And the “50% BB” value (Malus (apple) rootstocks; HC 1% (v/v))?
The value was 12 days.

What about the “Average Number of Broken Buds Per Malus Plant at Harvest” value (Malus (apple) rootstocks; HC 1% (v/v)) of the same compound?
Its value is 8.13.

And the “Average Number of Broken Nodes Per Centimeter of Shoot at Harvest” value (Malus (apple) rootstocks; HC 1% (v/v))?
Its value is 0.325.

What about the “Fresh Weight at Harvest” value (Malus (apple) rootstocks; HC 1% (v/v)) of the same compound?
The value was 7.99 grams.

What about the “Fresh Weight per Bud at Harvest” value (Malus (apple) rootstocks; HC 1% (v/v)) of the same compound?
The value was 0.98 grams.

Which “0-100% BB” value ([1]; ACC 100 ppm) does the source give for `NC1(C(=O)O)CC1` [ACC, 1-amino-1-cyclopropanecarboxylic acid] here?
Its value is 6 days.

What about the “50% BB” value ([1]; ACC 100 ppm) of the same compound?
The value was 10 days.

What about the “Mean FW” value ([1]; ACC 100 ppm) of the same compound?
Its value is 1.01 g.

And the “0-100% BB” value ([1]; ACC 300 ppm)?
Its value is 5 days.

What about the “50% BB” value ([1]; ACC 300 ppm) of the same compound?
Its value is 10 days.

What about the “Mean FW” value ([1]; ACC 300 ppm) of the same compound?
The value was 1.46 g.

What about the “0-100% BB” value ([1]; ACC 600 ppm) of the same compound?
The value was 7 days.

And the “50% BB” value ([1]; ACC 600 ppm)?
The value was 9 days.

And the “Mean FW” value ([1]; ACC 600 ppm)?
Its value is 2.57 g.

And the “50% BB” value ([2]; ACC 300 ppm)?
Its value is 12 days.

What about the “FW (grams)” value ([2]; ACC 300 ppm) of the same compound?
The value was 3.95 grams.

And the “50% BB” value ([2]; ACC 1000 ppm)?
Its value is 7 days.

And the “FW (grams)” value ([2]; ACC 1000 ppm)?
The value was 3.81 grams.

And the “0-100% BB” value ([3]; ACC 100 ppm)?
Its value is 10 days.

And the “50% BB” value ([3]; ACC 100 ppm)?
Its value is 11 days.

What about the “Mean FW” value ([3]; ACC 100 ppm) of the same compound?
Its value is 0.52 g.

And the “0-100% BB” value ([3]; ACC 300 ppm)?
Its value is 13 days.

And the “50% BB” value ([3]; ACC 300 ppm)?
The value was 10 days.

What about the “Mean FW” value ([3]; ACC 300 ppm) of the same compound?
Its value is 1.84 g.

What about the “0-100% BB” value ([3]; ACC 600 ppm) of the same compound?
The value was 12 days.

What about the “50% BB” value ([3]; ACC 600 ppm) of the same compound?
The value was 10 days.

What about the “Mean FW” value ([3]; ACC 600 ppm) of the same compound?
Its value is 1.28 g.

What about the “50% BB” value (Malus (apple) rootstocks; ACC 300 ppm) of the same compound?
Its value is 14 days.

What about the “Average Number of Broken Buds Per Malus Plant at Harvest” value (Malus (apple) rootstocks; ACC 300 ppm) of the same compound?
Its value is 6.13.

What about the “Average Number of Broken Nodes Per Centimeter of Shoot at Harvest” value (Malus (apple) rootstocks; ACC 300 ppm) of the same compound?
Its value is 0.25.

And the “Fresh Weight at Harvest” value (Malus (apple) rootstocks; ACC 300 ppm)?
Its value is 4.34 grams.

And the “Fresh Weight per Bud at Harvest” value (Malus (apple) rootstocks; ACC 300 ppm)?
Its value is 0.66 grams.

And the “50% BB” value (Malus (apple) rootstocks; ACC 1000 ppm)?
The value was 16 days.

What about the “Average Number of Broken Buds Per Malus Plant at Harvest” value (Malus (apple) rootstocks; ACC 1000 ppm) of the same compound?
The value was 7.38.

What about the “Average Number of Broken Nodes Per Centimeter of Shoot at Harvest” value (Malus (apple) rootstocks; ACC 1000 ppm) of the same compound?
The value was 0.30.

And the “Fresh Weight at Harvest” value (Malus (apple) rootstocks; ACC 1000 ppm)?
Its value is 3.05 grams.

And the “Fresh Weight per Bud at Harvest” value (Malus (apple) rootstocks; ACC 1000 ppm)?
Its value is 0.46 grams.
